The nature of assay [1]: Activation of monkey NPR1 expressed in CHO-K1 cells assessed as increase in cGMP production measured after 30 mins by HTRF assay. Format: cell-based. The note with it: Macaca mulatta, CHO-K1, 0.5 h.
Assay [2] concerns the target T1, Atrial natriuretic peptide receptor 1 (Homo sapiens, UniProt P16066).
T1 sequence (P16066 whole entry): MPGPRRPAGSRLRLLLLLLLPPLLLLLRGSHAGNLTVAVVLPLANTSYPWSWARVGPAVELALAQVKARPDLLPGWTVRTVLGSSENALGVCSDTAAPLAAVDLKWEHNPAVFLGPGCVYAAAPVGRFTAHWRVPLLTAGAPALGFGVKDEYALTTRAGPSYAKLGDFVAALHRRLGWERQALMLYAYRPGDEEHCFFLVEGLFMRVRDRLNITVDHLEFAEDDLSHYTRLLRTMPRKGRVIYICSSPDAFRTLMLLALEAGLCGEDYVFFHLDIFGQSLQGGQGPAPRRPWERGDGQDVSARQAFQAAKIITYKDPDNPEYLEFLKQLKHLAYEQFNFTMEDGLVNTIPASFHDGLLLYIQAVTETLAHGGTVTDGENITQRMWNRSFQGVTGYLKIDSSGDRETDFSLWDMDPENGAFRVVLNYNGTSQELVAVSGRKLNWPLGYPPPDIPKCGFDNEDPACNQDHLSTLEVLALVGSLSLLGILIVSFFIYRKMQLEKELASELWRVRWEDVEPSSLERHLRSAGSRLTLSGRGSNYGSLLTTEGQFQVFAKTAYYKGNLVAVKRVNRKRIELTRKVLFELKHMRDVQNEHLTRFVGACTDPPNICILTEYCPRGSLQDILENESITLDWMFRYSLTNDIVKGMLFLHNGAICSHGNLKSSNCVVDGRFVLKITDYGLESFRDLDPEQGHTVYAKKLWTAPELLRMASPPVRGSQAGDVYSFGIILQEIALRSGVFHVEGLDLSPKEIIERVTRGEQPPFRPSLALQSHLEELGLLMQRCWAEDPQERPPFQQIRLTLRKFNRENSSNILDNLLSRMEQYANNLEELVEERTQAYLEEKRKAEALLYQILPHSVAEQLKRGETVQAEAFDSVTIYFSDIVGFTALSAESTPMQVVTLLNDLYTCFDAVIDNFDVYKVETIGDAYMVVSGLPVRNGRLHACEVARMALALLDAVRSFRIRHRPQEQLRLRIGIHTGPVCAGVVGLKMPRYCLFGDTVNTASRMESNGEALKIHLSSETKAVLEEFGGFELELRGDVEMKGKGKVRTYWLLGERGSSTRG
Briefly: Activation of human NPR1 expressed in CHO-K1 cells assessed as increase in cGMP production measured after 30 mins by HTRF assay. Format: cell-based. For orientation: TR-FRET usually uses a lanthanide donor and a delayed reading to cut background.

With `CC[C@@H](N(C)c1nc2c(c(N[C@@H](CN3CCCCCC3)c3cnn(C)c3)n1)C[C@H](c1cccc(F)c1)CC2)C12CC(C(=O)O)(C1)C2`, the half-maximal activity concentration (AC50) in assay [1] worked out at 0.01 µM.
Turning to `CC[C@H]([C@H]1CC[C@H](C(=O)O)CC1)N(C)c1nc2c(c(N[C@@H](CN3C4CCCC3CC4)c3ccn(C)n3)n1)C[C@H](c1cccc(F)c1)CC2`, the AC50 in assay [1] was found to be 0.272 µM.
On to `CC[C@@H](Nc1nc2c(c(N[C@@H](CN3CCC[C@H](C)C3)c3cnn(C)c3)n1)C[C@](C)(c1cccc(F)c1)CC2)C1CCC(C(=O)O)CC1` (some centres undefined), for which the AC50 in assay [1] was found to be 0.044 µM; in assay [2], 0.042 µM.
`CC[C@@H](Nc1nc2c(c(N[C@@H](CN3CCC[C@H](C)C3)c3cnn(C)c3)n1)C[C@](C)(c1ccc(F)cc1)CC2)C1CCC(C(=O)O)CC1` (some centres undefined): the results for the concentration at half-maximal activity (AC50) in assay [1] and in assay [2] were 0.068 µM and 0.072 µM, respectively.
In the same order, the values of `CC[C@@H](Nc1nc2c(c(N[C@@H](CN3CCCCCC3)c3cnn(C)c3)n1)C[C@H](c1cccc(F)c1)CC2)C1CCC(C(=O)O)CC1` (some centres undefined) are 0.045 µM and 0.066 µM.
For the molecule `CC[C@@H](Nc1nc2c(c(N[C@@H](CN3C4CCCC3CC4)c3ccccc3)n1)C[C@H](c1ccccc1)CC2)[C@H]1CC[C@H](C(=O)O)CC1`, the AC50 in assay [1] is 0.138 µM.

The term AC50 denotes the concentration at which the activity in the assay is half-maximal.

The record behind these values is ChEMBL document CHEMBL6115042, “Hydroquinazoline Derivatives as Novel Natriuretic Peptide Receptor 1 (NPR1) Activators” (ACS Med Chem Lett, 2025).
